According to patent US20080213817A1, “Enhancement of Th2-Dependent and Inflammatory Response” (priority 2004, published 2008):

Columns and labels:
Format in all cases: cell-based, mice
WT thymocytes = test: Thymocyte proliferation, [3H] thymidine incorporation; conditions: WT thymocytes
Method: For proliferation assays, purified thymocytes or CD4^+ or CD8^+ splenic T cells (2×10^5 cells/well) were cultured in round bottom 96-well plates (Costar) precoated with anti-CD3 antibody (BD Pharmingen) in the absence or presence of soluble anti-CD28 antibody (BD Pharmingen). After 3 days, cultures were pulsed for 6 hrs with 1 μCi [^3H] thymidine (New England Nuclear) per well and cells were harvested. [^3H] thymidine incorporation was measured by scintillation counting. When indicated, either recombinant IL-4 or neutralizing anti-IL-4 antibody (R&D Systems) were added prior to [^3H] thymidine labeling.
For proliferation assays, purified thymocytes (2×10^5 cells/well) were cultured in round bottom 96-well plates (Costar) precoated with anti-CD3 antibody (BD Pharmingen) in the absence or presence of soluble anti-CD28 antibody (BD Pharmingen). […] [^3H] thymidine incorporation was measured by scintillation counting. […]
The effect of the Mekk1^KD mutation on activation of JNK and other MAPKs in response to TCR and CD28 engagement was investigated. • A. WT and Mekk1^KD thymocytes were incubated with anti-CD3 (10 μg/ml) and anti-CD28 (1 μg/ml). At the indicated times, JNK activity was measured by an immunecomplex kinase assay using GST-c-Jun(1-79) as the substrate. Phosphorylated c-Jun was detected by autoradiography and quantitated using a PhosphorImager. […] Cell proliferation was measured as above. […]

c-Jun and JunB = test: Immunoblotting of Jun protein levels in activated T cells
Method: (§1) JNK1 was immunoprecipitated from 30 μg cell lysate with anti-JNK1 antibody (333, PharMingen) and its kinase activity measured by an immunecomplex kinase assay with GST-c-Jun(1-79) as a substrate (Xia et al. (2000) Proc Natl Acad Sci USA 97, 5243-5248). c-Jun phosphorylation was quantitated using a PhosphoImager (Bio-Rad) and gel loading was normalized by immunoblotting with a monoclonal antibody against JNK1/2 (666, PharMingen). ERK activation was examined by immunoblotting of gel separated whole cell extracts (100 μg) with an antibody specific for phospho-ERK (Cell Signaling). Polyclonal antibody against MEKK1 was prepared as described (Gallagher et al. (2002) J Biol Chem 277, 45785-45792). Antibodies against c-Jun, JunB, GATA3, c-Maf, NFATc1, NFATc2, p16, and p65 (RelA) were all from Santa Cruz Biotechnology. Polyclonal antibody against Itch was prepared as described (Qiu et al. (2000) J Biol Chem 275, 35734-35737). The levels of various proteins were quantitated by BioRad Quantity One software.
(§2) The levels of Itch and actin were examined was measured by immunoblotting. […] Cells were chased with nonradioactive amino acids for the indicated times, at which they were lysed and Itch expression levels were determined by radioimmunoprecipitation. The levels of [^35S]-labeled Itch were quantitated using a PhosphoImager. […] JNK activity was measured by an immunecomplex kinase assay. Phosphorylated c-Jun was detected by autoradiography and quantitated using a PhosphoImager. […]
Inactivation of MEKK1 or JNK Slows Down JunB and c-Jun Turnover • A. Thymocytes and CD4^+ T cells from WT and Mekk1^ΔKD were stimulated with anti-CD3+anti-CD28 for 24 hrs. Cell extracts were prepared and the levels of various transcription factors were measured by immunoblotting. The relative levels of the different proteins determined by densitometry are indicated. […] The mRNA levels of Jun family members and c-Fos were measured by RNase protection. […] Cell lysates were prepared and immunoprecipitated with various antibodies as indicated, separated by SDS-PAGE and analyzed by autoradiography. […]

Itch = test: Immunoblotting of Itch level in activated thymocytes; conditions: activated WT thymocytes
Method: as §1, with “Polyclonal antibody against Itch was prepared as described (Qiu et al. (2000) J Biol Chem 275, 35734-35737).” left out
as §2

| Structure (SMILES) | effect on [3H] thymidine incorporation (in words) (WT thymocytes; anti-CD3+anti-CD28) | c-Jun and JunB expression (in words) (c-Jun and JunB; WT CD4^+ T cells stimulated with anti-CD3 and anti-CD28, 24 hours) | effect on c-Jun and JunB expression (in words) (c-Jun and JunB; activated WT thymocytes) | effect on Itch expression (in words) (Itch) | increase in [3H] thymidine incorporation (WT thymocytes; different concentrations of anti-CD3+anti-CD28, increasing amounts of inhibitor, 72 hrs) | increase in c-Jun and JunB expression (c-Jun and JunB; activated WT thymocytes (anti-CD3+anti-CD28), 24 hrs, SP600125 0.5 μM, JNKI-1 25 μM) | decrease in Itch expression (Itch; 24 hrs, 0.5 μM) |
| --- | --- | --- | --- | --- | --- | --- | --- |
| Oc1ccc(-c2nc(-c3ccncc3)c(-c3ccc(F)cc3)[nH]2)cc1 [SB202190] | did not produce such an effect | No such effects | Negligible such effects | Negligible such effects |  |  |  |
| Oc1c2ccccc2c2c3c(cccc13)N=N2 [SP600125] |  |  |  |  | at least 2 fold | 4 fold | 2 fold |
